#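 These data come from cells grown in 96-well plates and exposed to compound for 48 hours at five concentrations. GI50 = concentration required for 50% inhibition of growth.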 Activity calls are given as the source filed them. Rule as the data show it: active = GI50 up to about 1.1 µM and inactive = higher.
# What was measured:
# Assay in all cases: NCI tumour cell line growth inhibition, 48 h
# [1] = test system: A549
# [2] = test system: HCC 2998
# [3] = test system: HCT-116
# [4] = test system: HCT-15
# [5] = test system: HT-29
# [6] = test system: IGROV-1
# [7] = test system: K562
# [8] = test system: LOX IMVI
# [9] = test system: M14
# [10] = test system: NCI-H226
# [11] = test system: NCI-H460
# [12] = test system: OVCAR-3
# [13] = test system: OVCAR-4
# [14] = test system: OVCAR-8
# [15] = test system: SK-MEL-28
# [16] = test system: SK-MEL-2
# [17] = test system: SNB-19
# [18] = test system: T47D
# [19] = test system: UACC-257
Compound,GI50 [1],GI50 [2],GI50 [3],GI50 [4] [µM],GI50 [5],GI50 [6],GI50 [7],GI50 [8],GI50 [9],GI50 [10],GI50 [11],GI50 [12],GI50 [13],GI50 [14],GI50 [15],GI50 [16],GI50 [17],GI50 [18],GI50 [19]
CC(CO)(CO)Nc1ncnc2ccccc12,> 100 µM (inactive),> 100 µM (inactive),> 100 µM (inactive),> 100,> 100 µM (inactive),> 100 µM (inactive),> 100 µM (inactive),> 100 µM (inactive),> 100 µM (inactive),> 100 µM (inactive),> 100 µM (inactive),> 100 µM (inactive),> 100 µM (inactive),> 100 µM (inactive),> 100 µM (inactive),> 100 µM (inactive),> 100 µM (inactive),> 100 µM (inactive),> 100 µM (inactive)
Oc1c(C(Nc2ccccn2)c2ccccc2)ccc2cccnc12 (stereo not given),4.35 µM (inactive),49.9 µM (inactive),3.26 µM (inactive),1.98,4.55 µM (inactive),3.33 µM (inactive),3.22 µM (inactive),2.77 µM (inactive),3.08 µM (inactive),2.59 µM (inactive),2.11 µM (inactive),2.51 µM (inactive),3.5 µM (inactive),4.01 µM (inactive),6.22 µM (inactive),3.55 µM (inactive),5.51 µM (inactive),3.94 µM (inactive),7.8 µM (inactive)
Cc1ccc(SC[C@@]2(C(F)F)NC(=O)NC2=O)cc1,> 100 µM (inactive),> 100 µM (inactive),> 100 µM (inactive),> 100,> 100 µM (inactive),> 100 µM (inactive),> 100 µM (inactive),> 100 µM (inactive),> 100 µM (inactive),> 100 µM (inactive),> 100 µM (inactive),> 100 µM (inactive),> 100 µM (inactive),> 100 µM (inactive),> 100 µM (inactive),> 100 µM (inactive),> 100 µM (inactive),> 100 µM (inactive),> 100 µM (inactive)
CCC(c1c[nH]c2ccc(Br)cc12)c1c[nH]c2ccc(Br)cc12,3.72 µM (inactive),2.19 µM (inactive),3.94 µM (inactive),4.01,3.08 µM (inactive),4.41 µM (inactive),2.54 µM (inactive),2.44 µM (inactive),3.22 µM (inactive),11.8 µM (inactive),2.63 µM (inactive),3.96 µM (inactive),2.75 µM (inactive),4.53 µM (inactive),11.5 µM (inactive),10.6 µM (inactive),8.57 µM (inactive),2.3 µM (inactive),11.6 µM (inactive)
O=C1CSC(c2ccc(Cl)cc2)N1c1ccc(Oc2ccc(Cl)cc2)c(Cl)c1 (stereo not given),16.2 µM (inactive),17.2 µM (inactive),15.7 µM (inactive),15.8,18.6 µM (inactive),14.8 µM (inactive),17.3 µM (inactive),15.2 µM (inactive),16.7 µM (inactive),17.4 µM (inactive),18.5 µM (inactive),15 µM (inactive),14.7 µM (inactive),17.5 µM (inactive),17.7 µM (inactive),16 µM (inactive),15.6 µM (inactive),10.7 µM (inactive),18.2 µM (inactive)
CCOC(=O)/C(C(=O)NC(C)C)=C(/N)N1CCOCC1,> 100 µM (inactive),> 100 µM (inactive),> 100 µM (inactive),> 100,> 100 µM (inactive),> 100 µM (inactive),> 100 µM (inactive),> 100 µM (inactive),> 100 µM (inactive),> 100 µM (inactive),> 100 µM (inactive),> 100 µM (inactive),> 100 µM (inactive),> 100 µM (inactive),> 100 µM (inactive),> 100 µM (inactive),> 100 µM (inactive),> 100 µM (inactive),> 100 µM (inactive)
O=C1N/C(=N/N=C\c2ccccc2)N/C1=C/c1ccc(Cl)cc1,25.6 µM (inactive),15.9 µM (inactive),26.9 µM (inactive),15.3,33 µM (inactive),14.6 µM (inactive),34 µM (inactive),26.1 µM (inactive),37.4 µM (inactive),15.5 µM (inactive),18.4 µM (inactive),17.4 µM (inactive),12.8 µM (inactive),21.7 µM (inactive),39 µM (inactive),26.5 µM (inactive),15.6 µM (inactive),21 µM (inactive),43 µM (inactive)
CCOC(=O)c1ccc2c(=O)n3c(C(=O)OCC)ccc3c(=O)n12,> 100 µM (inactive),> 100 µM (inactive),> 100 µM (inactive),> 100,> 100 µM (inactive),> 100 µM (inactive),> 100 µM (inactive),> 100 µM (inactive),> 100 µM (inactive),> 100 µM (inactive),> 100 µM (inactive),> 100 µM (inactive),> 100 µM (inactive),> 100 µM (inactive),> 100 µM (inactive),> 100 µM (inactive),> 100 µM (inactive),> 100 µM (inactive),> 100 µM (inactive)
CCOC(=O)/C=C/C1(CCOC(C)=O)CCCCC1,> 10 µM (inactive),> 10 µM (inactive),> 10 µM (inactive),> 10,> 10 µM (inactive),> 10 µM (inactive),> 10 µM (inactive),> 10 µM (inactive),> 10 µM (inactive),> 10 µM (inactive),> 10 µM (inactive),> 10 µM (inactive),> 10 µM (inactive),> 10 µM (inactive),> 10 µM (inactive),> 10 µM (inactive),> 10 µM (inactive),> 10 µM (inactive),> 10 µM (inactive)
CC(=O)Nc1ccc2[nH]c(C(=O)N3CC(CCl)c4c3cc([N+](=O)[O-])c3ccccc43)cc2c1 (stereo not given),0.393 µM (active),6.4 µM (inactive),6.41 µM (inactive),6.47,29.9 µM (inactive),2.92 µM (inactive),0.601 µM (active),9.2 µM (inactive),24.2 µM (inactive),9.38 µM (inactive),12.9 µM (inactive),> 100 µM (inactive),> 36.3 µM (inactive),3.1 µM (inactive),> 35.6 µM (inactive),13.8 µM (inactive),> 30.2 µM (inactive),2.77 µM (inactive),> 100 µM (inactive)
CCOC(=O)c1c(N/C(S)=N/c2ccccc2)sc2c1CCOC2,53.1 µM (inactive),70.1 µM (inactive),37.2 µM (inactive),46.7,89.9 µM (inactive),27.5 µM (inactive),> 100 µM (inactive),52.7 µM (inactive),39.1 µM (inactive),> 100 µM (inactive),40.2 µM (inactive),87.9 µM (inactive),61.5 µM (inactive),> 100 µM (inactive),27.5 µM (inactive),74.6 µM (inactive),> 100 µM (inactive),24 µM (inactive),64 µM (inactive)
O=Cc1ccc(-c2cccc([N+](=O)[O-])c2)s1,> 100 µM (inactive),> 100 µM (inactive),> 100 µM (inactive),> 100,> 100 µM (inactive),> 100 µM (inactive),72.1 µM (inactive),> 100 µM (inactive),> 100 µM (inactive),67.5 µM (inactive),> 100 µM (inactive),> 100 µM (inactive),> 100 µM (inactive),80.9 µM (inactive),> 100 µM (inactive),> 100 µM (inactive),> 100 µM (inactive),86.5 µM (inactive),> 100 µM (inactive)
CN(CCC#N)c1ccc(/C=C2\SC(=S)NC2=O)cc1,34.1 µM (inactive),51.6 µM (inactive),29.2 µM (inactive),48.2,87.1 µM (inactive),> 100 µM (inactive),45.4 µM (inactive),8.2 µM (inactive),67.6 µM (inactive),> 100 µM (inactive),25.9 µM (inactive),27.7 µM (inactive),62.8 µM (inactive),> 100 µM (inactive),40.1 µM (inactive),35 µM (inactive),71 µM (inactive),51.2 µM (inactive),> 100 µM (inactive)
Cc1sc2nc3n(c(=O)c2c1C)N=CN(c1ccc(F)cc1)C3,43.9 µM (inactive),59.6 µM (inactive),23.8 µM (inactive),> 100,> 100 µM (inactive),61.9 µM (inactive),> 100 µM (inactive),> 100 µM (inactive),> 100 µM (inactive),> 100 µM (inactive),44.5 µM (inactive),> 100 µM (inactive),18.7 µM (inactive),65.6 µM (inactive),> 100 µM (inactive),> 100 µM (inactive),38 µM (inactive),> 100 µM (inactive),> 100 µM (inactive)
CCCCCOC(=O)c1cc2cc(CCl)ccc2oc1=O,1.97 µM (inactive),14.9 µM (inactive),10.1 µM (inactive),3.69,7.01 µM (inactive),10.3 µM (inactive),3.79 µM (inactive),14.4 µM (inactive),1.51 µM (inactive),15.7 µM (inactive),17.2 µM (inactive),2.82 µM (inactive),4.13 µM (inactive),17.9 µM (inactive),6.49 µM (inactive),0.466 µM (active),18.7 µM (inactive),4.55 µM (inactive),1.09 µM (active)

# — ChEMBL document CHEMBL1201862, “PubChem BioAssay data set” (2004)
